In PubChem BioAssay AID2060606 (Molecular Pharmacology Branch, DTP, NCI, 2025):

System: 922993-354-T-J3-PDC complex spheroids, viability, % test/control
Assay: Anticancer human tumor 922993-354-T-J3-PDC patient-derived endometrial carcinoma cell line growth inhibition [CLK]
Conditions: for IC50: curve of first compound; for viability, T/C: stronger effect = lower value
Source text: A high-throughput screen of multi-cell type tumor spheroids was designed to identify active combinations of […] and targeted small molecules. Complex spheroids include a stromal component modeled by human endothelial cells (HUVEC) and fibroblasts modeled by human mesenchymal stem cells (MSCs). The concentration ranges selected for each drug and investigational agent were based upon clinically achievable concentrations if the clinical Cmax of the agent was known.
Compounds. The drugs and investigational agents: cirtuvivint (SM08502; NSC835563), CC-671 (NSC850746), vemurafenib (NSC761431), tapotoclax (NSC804041), sotorasib (NSC818433), adagrasib (NSC831453), MRTX-1133 (NSC836407), BAY2416964 (NSC825713), copanlisib (NSC816437), inavolisib (NSC800729), abemaciclib (NSC768073), osimertinib (NSC779217), entinostat (NSC756642), eltanexor (KPT-8602, NSC794443), venetoclax (NSC766270), ceralasertib (NSC777638), bortezomib (NSC756655), olaparib (NSC753686), talazoparib (NSC767125), alisertib (NSC759677), peposertib (NSC802822), gemcitabine (NSC613327), 5-fluorouracil (NSC19893), SN-38 (NSC673596), oxaliplatin (NSC266046), paclitaxel (NSC125973), and doxorubicin (NSC123127), were obtained from the National Cancer Institute (NCI) Developmental Therapeutics Program Chemical Repository. The FDA-approved anticancer drug set is available from the Developmental Therapeutics Program at https://dtp.cancer.gov/organization/dscb/obtaining/available plates.htm. […] The stock solutions were prepared in dimethyl sulfoxide (DMSO, Sigma-Aldrich, St. Louis, MO, cat. D2650), except for the platinum complexes which were prepared in saline (Quality Biological, Gaithersburg, MD, cat. 114-055-101), at 800-fold the tested concentration and stored at -70 degrees C prior to their use. All drugs and investigational agents were tested over a range starting from a high concentration at or near the clinical Cmax and decreasing in half-log increments. If the clinical Cmax for an agent had not been determined, the highest concentration tested was 10 microM.
Cell Culture. All cells were maintained in an incubator at 37 degrees C and 5% CO2 with 95% humidity. The PDC lines were cultured according to standard operating procedures established by the NCI PDMR. Briefly, all PDCs were thawed and cultured in Matrigel-coated flasks prepared with a working solution of 1X Ham's F-12 nutrient mix, without supplementation (Invitrogen, Waltham, MA, cat. 11765054), 100 U/mL penicillin-streptomycin (Invitrogen, cat. 15140122), and 2.5% Matrigel (Corning Inc., Corning, NY, cat. 354248) for the first three passages. The 947758-054-R-J2-PDC line was cultured in 6B/Colon 1A media, which includes advanced DMEM/F-12 (Thermo Fisher Scientific, cat. 12634028), 10 mM HEPES (Thermo Fisher Scientific, cat. 15630080), 1X GlutaMAX supplement (Thermo Fisher Scientific, cat. 35050061), 0.1 mg/mL primocin (InvivoGen, cat. ant-pm-2), 10% defined fetal bovine serum, heat inactivated (HyClone Laboratories Inc., cat. SH30070.03HI), 1.25 mM N-Acetyl-L-cysteine (Sigma-Aldrich, cat. A9165), 10 mM nicotinamide (Sigma-Aldrich, cat. N0636), 1X B-27 supplement (Thermo Fisher Scientific, cat. 17504044), 1X N-2 supplement (Thermo Fisher Scientific, cat. 17502048), and 10 microM Y-27632 dihydrochloride (Tocris Bioscience, cat. 1254). The 876862-298-R-J1-PDC was cultured in 6E media, which includes all 6B/Colon 1A media components plus 50% L-WRN conditioned media (ATCC, cat. CRL-3276), 50 ng/mL recombinant human EGF recombinant protein (hEGF; Thermo Fisher Scientific, cat. PHG0311), 10 ng/mL recombinant human fibroblast growth factor 10 (hGFG-10; PeproTech, cat. 100-26), 1 ng/mL recombinant human fibroblast growth factor 2 (hFGF-2; PeproTech, cat. 100-18B), and 1 µM prostaglandin E2 (PGE2; Tocris, cat. 2296). The 227483-062-R1-J1-PDC line was cultured in Panc media, containing all 6E components except hFGF-2, with the addition of 500 nM SB-431542 (Selleckchem, cat. S1067) and 10 nM gastrin (Tocris, cat. 3006). […]

[1] = second compound 0.0316 µM, first compound 0.0316 µM
[2] = second compound 0.0316 µM, first compound 0.1 µM
[3] = second compound 0.0316 µM, first compound 0.316 µM
[4] = second compound 0.0316 µM, first compound 1 µM
[5] = second compound 0.0316 µM, first compound 3.16 µM
[6] = second compound 0.0316 µM, first compound 10 µM
[7] = second compound 0.1 µM, first compound 0.0316 µM
[8] = second compound 0.1 µM, first compound 0.1 µM
[9] = second compound 0.1 µM, first compound 0.316 µM
[10] = second compound 0.1 µM, first compound 1 µM
[11] = second compound 0.1 µM, first compound 3.16 µM
[12] = second compound 0.1 µM, first compound 10 µM
[13] = second compound 0.316 µM, first compound 0.0316 µM
[14] = second compound 0.316 µM, first compound 0.1 µM
[15] = second compound 0.316 µM, first compound 0.316 µM
[16] = second compound 0.316 µM, first compound 1 µM
[17] = second compound 0.316 µM, first compound 3.16 µM
[18] = second compound 0.316 µM, first compound 10 µM
[19] = second compound 1 µM, first compound 0.0316 µM
[20] = second compound 1 µM, first compound 0.1 µM
[21] = second compound 1 µM, first compound 0.316 µM
[22] = second compound 1 µM, first compound 1 µM
[23] = second compound 1 µM, first compound 3.16 µM
[24] = second compound 1 µM, first compound 10 µM
[25] = second compound 3.16 µM, first compound 0.0316 µM
[26] = second compound 3.16 µM, first compound 0.1 µM
[27] = second compound 3.16 µM, first compound 0.316 µM
[28] = second compound 3.16 µM, first compound 1 µM
[29] = second compound 3.16 µM, first compound 3.16 µM
[30] = second compound 3.16 µM, first compound 10 µM
[31] = second compound 10 µM, first compound 0.0316 µM
[32] = second compound 10 µM, first compound 0.1 µM
[33] = second compound 10 µM, first compound 0.316 µM
[34] = second compound 10 µM, first compound 1 µM
[35] = second compound 10 µM, first compound 3.16 µM
[36] = second compound 10 µM, first compound 10 µM
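Also: spheroids exposed to the agents for 7 days before readout.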

O=C(c1cc(Cc2n[nH]c(=O)c3ccccc23)ccc1F)N1CCN(C(=O)C2CC2)CC1 + CNC(=O)c1ccc(Nc2nc(OC3CCCC3)c3c(-c4ccc5nc(C)oc5c4)c[nH]c3n2)c(OC)c1 gave an IC50 (second compound 0.0316 µM) greater than 10 µM, an IC50 (second compound 0.1 µM) greater than 10 µM and an IC50 (second compound 0.316 µM) greater than 10 µM. The IC50 (second compound 1 µM) was less than 0.0316 µM, the IC50 (second compound 3.16 µM) was less than 0.0316 µM and the IC50 (second compound 10 µM) was less than 0.0316 µM. It also gave a viability, T/C [1] of 99.4%, a viability, T/C [2] of 106% and a viability, T/C [3] of 101%. It also gave a viability, T/C [4] of 106%, a viability, T/C [5] of 110% and a viability, T/C [6] of 101%. It also gave a viability, T/C [7] of 104%, a viability, T/C [8] of 107% and a viability, T/C [9] of 98.3%. It also gave a viability, T/C [10] of 105%, a viability, T/C [11] of 111% and a viability, T/C [12] of 101%. The viability, T/C [13] was 73.5%, the viability, T/C [14] was 72.1% and the viability, T/C [15] was 67.1%. For the same molecule, the viability, T/C [16] was 66.5%, the viability, T/C [17] was 66% and the viability, T/C [18] was 51.8%. It also gave a viability, T/C [19] of 36.1%, a viability, T/C [20] of 38.5% and a viability, T/C [21] of 32.3%. The viability, T/C [22] was 35.6%, the viability, T/C [23] was 44.1% and the viability, T/C [24] was 39%. For the same molecule, the viability, T/C [25] was 32.2%, the viability, T/C [26] was 36.8% and the viability, T/C [27] was 25.4%. The viability, T/C [28] was 34%, the viability, T/C [29] was 28.4% and the viability, T/C [30] was 33.5%. The viability, T/C [31] was 34.1%, the viability, T/C [32] was 24.7% and the viability, T/C [33] was 31.5%. For the same molecule, the viability, T/C [34] was 34.2%, the viability, T/C [35] was 34.8% and the viability, T/C [36] was 33.8%.
C=CC(=O)N1CCN(c2nc(=O)n(-c3c(C)ccnc3C(C)C)c3nc(-c4c(O)cccc4F)c(F)cc23)C(C)C1 (centres undefined) + CNC(=O)c1ccc(Nc2nc(OC3CCCC3)c3c(-c4ccc5nc(C)oc5c4)c[nH]c3n2)c(OC)c1 was tested, and the IC50 (second compound 0.0316 µM) was greater than 10 µM, the IC50 (second compound 0.1 µM) was greater than 10 µM and the IC50 (second compound 0.316 µM) was greater than 10 µM. For the same molecule, the IC50 (second compound 1 µM) was less than 0.0316 µM, the IC50 (second compound 3.16 µM) was less than 0.0316 µM and the IC50 (second compound 10 µM) was less than 0.0316 µM. For the same molecule, the viability, T/C [1] was 106%, the viability, T/C [2] was 105% and the viability, T/C [3] was 102%. For the same molecule, the viability, T/C [4] was 103%, the viability, T/C [5] was 106% and the viability, T/C [6] was 78.6%. For the same molecule, the viability, T/C [7] was 86.2%, the viability, T/C [8] was 104% and the viability, T/C [9] was 101%. For the same molecule, the viability, T/C [10] was 103%, the viability, T/C [11] was 103% and the viability, T/C [12] was 94.5%. For the same molecule, the viability, T/C [13] was 66.9%, the viability, T/C [14] was 69% and the viability, T/C [15] was 64%. It also gave a viability, T/C [16] of 61.1%, a viability, T/C [17] of 69.3% and a viability, T/C [18] of 47.5%. It also gave a viability, T/C [19] of 33.8%, a viability, T/C [20] of 32.8% and a viability, T/C [21] of 34.6%. The viability, T/C [22] was 36.2%, the viability, T/C [23] was 41.4% and the viability, T/C [24] was 44.8%. The viability, T/C [25] was 34.3%, the viability, T/C [26] was 31.2% and the viability, T/C [27] was 30.6%. For the same molecule, the viability, T/C [28] was 33.3%, the viability, T/C [29] was 36.4% and the viability, T/C [30] was 38.1%. The viability, T/C [31] was 27.6%, the viability, T/C [32] was 28.6% and the viability, T/C [33] was 31.9%. The viability, T/C [34] was 33%, the viability, T/C [35] was 34.1% and the viability, T/C [36] was 37.3%.
